Like-named read-outs stand apart in the source and are kept apart here.
Assays:
[1] = test system: NCI-H1975 cells (EGFR T790M L858R); experiment: EGFR-SOS cellular inhibition assay (CellTiter-Glo, 3D); type: cell-based; details: Homo sapiens
[2] = target: SOS1 (Homo sapiens (Human), UniProt Q07889); experiment: Ras-SOS interaction assay (HTRF); type: biochemical
[3] = test system: MIA PaCa-2 cells (K-Ras G12C); experiment: Ras-SOS cellular growth inhibition assay (CellTiter-Glo, 3D); type: cell-based; details: Homo sapiens
How it was run: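 MIA PaCa-2 cells grown in ultra-low-attachment plates (3D) in DMEM/Ham's F12 with 10% FCS and 2.5% horse serum, treated the day after seeding with a 9-point 3-fold compound series for about 5 days. Viability by CellTiter-Glo luminescence; IC50 from four-parameter fit.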

[4] = 120 h, NCI-H1975, 3D proliferation, about 5 days, read-out: Bio-Cell-Prolif-3D (H1975 IC50)
[5] = NCI-H1975, EGFR T790M L858R, read-out: IC50 in inhibiting growth of NCI-H1975 cell line
[6] = K-RasG13D utilized, read-out: IC50 inhibition of SOS
[7] = K-RasG13D, read-out: IC50 value against SOS1
[8] = MIA PaCa-2, 120 h, MIA PaCa-2, 3D proliferation, about 5 days, read-out: Bio-Cell-Prolif-3D (MiaPaca2 IC50)
[9] = MIA PaCa-2, MIA PaCa-2, read-out: IC50 in inhibiting MIA PaCa-2 cell growth

SOS1, sequence (Q07889 564-1049): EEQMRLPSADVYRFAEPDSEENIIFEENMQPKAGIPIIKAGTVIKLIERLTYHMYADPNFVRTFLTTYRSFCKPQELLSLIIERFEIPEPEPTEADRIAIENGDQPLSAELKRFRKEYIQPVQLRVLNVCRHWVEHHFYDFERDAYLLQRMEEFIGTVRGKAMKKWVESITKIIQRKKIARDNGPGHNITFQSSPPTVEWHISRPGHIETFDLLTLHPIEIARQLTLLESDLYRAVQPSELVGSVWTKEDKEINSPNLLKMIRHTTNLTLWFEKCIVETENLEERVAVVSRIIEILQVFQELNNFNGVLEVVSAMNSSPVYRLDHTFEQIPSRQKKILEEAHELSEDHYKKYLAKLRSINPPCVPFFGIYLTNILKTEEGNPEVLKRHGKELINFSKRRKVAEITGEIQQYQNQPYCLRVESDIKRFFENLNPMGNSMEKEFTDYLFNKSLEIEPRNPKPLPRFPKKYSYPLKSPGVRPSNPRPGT

Row | SMILES | IC50 [1, 4] [nM] | IC50 [1, 5] [nM] | IC50 [2, 6] [nM] | IC50 [2, 7] [nM] | IC50 [3, 8] [nM] | IC50 [3, 9] [nM]
1 | COc1nc2nc(C)nc(N[C@H](C)c3cccc(C(F)(F)C4CCN(C(C)C)CC4)c3)c2cc1N1CCN(C(C)C)CC1 [Compound 418, (R)—N-(1-(3-(difluoro(1-isopropylpiperidin-4-yl)methyl)phenyl)ethyl)-6-(4-isopropylpiperazin-1-yl)-7-methoxy-2-methylpyrido[2,3-d]pyrimidin-4-amine] | ≤ 1000 | < 500 | < 100 | < 50 | ≤ 1000 | < 500
2 | COc1nc2nc(C)nc(N[C@H](C)c3cccc(C(F)F)c3F)c2cc1C1(C#N)CCN(C(C)C)CC1 [Compound 117, (R)-4-(4-((1-(3-(difluoromethyl)-2-fluorophenyl)ethyl)amino)-7-methoxy-2-methylpyrido[2,3-d]pyrimidin-6-yl)-1-isopropylpiperidine-4-carbonitrile] | ≤ 1000 | < 500 | < 100 | < 50 | ≤ 1000 | 
3 | COc1nc2nc(C)nc(N[C@H](C)c3cccc(C(F)(F)C(C)(C)O)c3)c2cc1C1CCN(C(C)C)CC1 [Compound 212, (R)-1,1-difluoro-1-(3-(1-((6-(1-isopropylpiperidin-4-yl)-7-methoxy-2-methylpyrido[2,3-d]pyrimidin-4-yl)amino)ethyl)phenyl)-2-methylpropan-2-ol] | ≤ 1000 | < 500 | < 100 | < 50 | ≤ 1000 | < 500
4 | Cc1nc(N[C@H](C)c2cccc(C(F)F)c2F)c2cc(C3(C#N)CC3)c(O[C@H]3CCOC3)nc2n1 [Compound 297, 1-(4-(((R)-1-(3-(difluoromethyl)-2-fluorophenyl)ethyl)amino)-2-methyl-7-(((S)-tetrahydrofuran-3-yl)oxy)pyrido[2,3-d]pyrimidin-6-yl)cyclopropane-1-carbonitrile] | ≤ 1000 | < 500 |  | < 50 | 1000 to 10000 | 
5 | COc1nc2nc(C)nc(N[C@H](C)c3cccc(C(F)(F)C4(O)CC4)c3F)c2cc1N1CCN(C(C)C)CC1 [Compound 209, (R)-1-(difluoro(2-fluoro-3-(1-((6-(4-isopropylpiperazin-1-yl)-7-methoxy-2-methylpyrido[2,3-d]pyrimidin-4-yl)amino)ethyl)phenyl)methyl)cyclopropan-1-ol] | ≤ 1000 | < 500 | < 100 | < 50 | ≤ 1000 | < 500
6 | Cc1nc(N[C@H](C)c2cccc(C(F)(F)F)c2C)c2cc(C3CCN(C(C)C)CC3)c(Cl)nc2n1 [Compound 392, (R)-7-chloro-6-(1-isopropylpiperidin-4-yl)-2-methyl-N-(1-(2-methyl-3-(trifluoromethyl)phenyl)ethyl)pyrido [2,3-d]pyrimidin-4-amine] | ≤ 1000 | < 500 | < 100 | < 50 | ≤ 1000 | < 500
7 | C[C@H](O)C(F)(F)c1cccc([C@@H](C)Nc2ncnc3nc(Cl)c(C4(C#N)CC4)cc23)c1 [Compound 265, 1-(7-chloro-4-(((R)-1-(3-((S)-1,1-difluoro-2-hydroxypropyl)phenyl)ethyl)amino)pyrido[2,3-d]pyrimidin-6-yl) cyclopropane-1-carbonitrile] | ≤ 1000 | < 500 | < 100 | < 50 | ≤ 1000 | < 500
8 | Cc1nc(N[C@H](C)c2cccc(C(F)F)c2F)c2cc(N3CCN(C(C)C)CC3)c(OC3CNC3)nc2n1 [Compound 367, (R)-7-(azetidin-3-yloxy)-N-(1-(3-(difluoromethyl)-2-fluorophenyl)ethyl)-6-(4-isopropylpiperazin-1-yl)-2-methylpyrido[2,3-d]pyrimidin-4-amine] | ≤ 1000 | < 500 | < 100 | < 50 | 1000 to 10000 | 
9 | COc1nc2nc(C)nc(N[C@H](C)c3cccc(C(F)F)c3F)c2cc1C1CCN(C)CC1 [Compound 113, (R)-N-(1-(3-(difluoromethyl)-2-fluorophenyl)ethyl)-7-methoxy-2-methyl-6-(1-methylpiperidin-4-yl)pyrido[2,3-d]pyrimidin-4-amine] | ≤ 1000 | < 500 | < 100 | < 50 | ≤ 1000 | < 500
10 | COc1nc2nc(CCN3CCC3)nc(N[C@H](C)c3cccc(C(F)(F)F)c3F)c2cc1C1(C#N)CC1 [Compound 217, (R)-1-(2-(2-(azetidin-1-yl)ethyl)-4-((1-(2-fluoro-3-(trifluoromethyl)phenyl)ethyl)amino)-7-methoxypyrido[2,3-d]pyrimidin-6-yl)cyclopropane-1-carbonitrile] | ≤ 1000 | < 500 |  | < 50 | ≤ 1000 | 
11 | COc1nc2nc(C)nc(N[C@H](C)c3cccc(C(F)(F)F)c3F)c2cc1C1CCN(C(=O)CN(C)C)CC1 [Compound 302, (R)-2-(dimethylamino)-1-(4-(4-((1-(2-fluoro-3-(trifluoromethyl)phenyl)ethyl)amino)-7-methoxy-2-methylpyrido[2,3-d]pyrimidin-6-yl)piperidin-1-yl)ethan-1-one] | ≤ 1000 | < 500 | < 100 | < 50 | ≤ 1000 | 
12 | CC(C)N1CCN(c2cc3c(N[C@H](C)c4cccc(C(F)F)c4F)ncnc3nc2OC2CN(C)C2)CC1 [Compound 414, (R)-N-(1-(3-(difluoromethyl)-2-fluorophenyl)ethyl)-6-(4-isopropylpiperazin-1-yl)-7-((1-methylazetidin-3-yl)oxy)pyrido [2,3-d]pyrimidin-4-amine] | ≤ 1000 | < 500 | < 100 | < 50 | ≤ 1000 | 
13 | Cc1nc(N[C@H](C)c2cccc(C(F)F)c2F)c2cc(C3CCN(C)CC3)c(OC3CN(C)C3)nc2n1 [Compound 252, (R)-N-(1-(3-(difluoromethyl)-2-fluorophenyl)ethyl)-2-methyl-7-((1-methylazetidin-3-yl)oxy)-6-(1-methylpiperidin-4-yl)pyrido[2,3-d]pyrimidin-4-amine] | ≤ 1000 |  | < 100 | < 50 | 1000 to 10000 | 
14 | Cc1nc(N[C@H](C)c2cccc(C(F)F)c2F)c2cc(C3(C(F)F)CC3)c(OC3CN(C)C3)nc2n1 [Compound 190, (R)-N-(1-(3-(difluoromethyl)-2-fluorophenyl)ethyl)-6-(1-(difluoromethyl)cyclopropyl)-2-methyl-7-((1-methylazetidin-3-yl)oxy)pyrido[2,3-d] pyrimidin-4-amine] | ≤ 1000 | < 500 | < 100 | < 50 | ≤ 1000 | < 500
15 | COc1nc2ncnc(N[C@H](C)c3cccc(C(F)F)c3F)c2cc1C1CCS(=O)(=O)CC1 [Compound 315, (R)-4-(4-((1-(3-(difluoromethyl)-2-fluorophenyl)ethyl)amino)-7-methoxypyrido[2,3-d]pyrimidin-6-yl)tetrahydro-2H-thiopyran 1,1-dioxide] | ≤ 1000 | < 500 | < 100 |  | 1000 to 10000 | 

Source: US11648254B2 (Kumquat Biosciences Inc., priority 2021, dated 2023)
